For series [1], the system named is P. aeruginosa.
Series [2] concerns P. aeruginosa ATCC 27853. It counts as cell-based, Pseudomonas aeruginosa. The settings on record: ATCC 27853. The method, boiled down:
(§1)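 Peptide activity was measured by a modified NCCLS broth microdilution method in Mueller-Hinton broth with 0.02% BSA. An inoculum adjusted against a 0.5 McFarland standard to about 10^6 CFU/ml was mixed 1:1 with two-fold serial peptide dilutions.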

Series [3] can be described thus: Plasma stability, rat plasma. It counts as in vitro ADME.
Series [4] deals with Pseudomonas aeruginosa (ATCC 27853). Put plainly: In vivo septicemia assay. Further details: species or system CD-1 mice. The settings on record: groups of 6 mice. The procedure: Groups of 6 CD-1 (Crl.) derived male mice weighing 24±2 g were used. The mice were each inoculated intravenously (IV) with an LD90-100 of Pseudomonas aeruginosa (ATCC 27853) (9×10^6 CFU/0.5 ml/mouse) in brain heart infusion broth without 5% mucin. Compound at doses of 5, 2.5, 1, 0.5, 0.25 and 0.1 mg/kg, vehicle (0.9% NaCl, 10 ml/kg) was administered subcutaneously (SC) to test animals at 1 hour after bacterial inoculation. Also, an additional group was treated twice with compound at a dose of 5 mg/kg at 1 and 6 hours after bacterial inoculation. Mortality was recorded once daily for 7 days following the bacterial inoculation and an increase of survival of the animals by 50 percent or more (^3 50%) after the bacterial inoculation, relative to vehicle control, indicates significant antimicrobial effect. The MED (ED50) was determined by nonlinear regression using Graph-Pad Prism (Graph Pad Software, USA).
Septicaemia experiment in mice: LD90-100 of Pseudomonas aeruginosa (ATCC 27853) (9×10^6 CFU/0.5 ml/mouse IV and after 1 h Ex. 1 s.c.
Septicaemia experiment in mice: LD90-100 of Pseudomonas aeruginosa (ATCC 27853) (9×10^6 CFU/0.5 ml/mouse IV), and after 1 and 5 h Ex. 40 s.c.
Septicaemia experiment in mice: LD90-100 of Pseudomonas aeruginosa (ATCC 27853) (9×10^6 CFU/0.5 ml/mouse IV), and after 1 and 5 h Ex. 50 s.c.

Series [5] is described as follows: Plasma stability, human plasma. It counts as in vitro ADME.
In series [6] the test system is HELA cells (Acc57). Put plainly: Cytotoxicity assay, MTT reduction (LC 50, GI 50). The format is cell-based. The method, boiled down:
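Read-out was MTT reduction (A595) after 48 h peptide exposure (12.5–50 μM, triplicates) of HeLa cells plated at 7.0×10^3/well and precultured 24 h. Growth % was normalised to a time-zero reading. Linear trend interpolation gave the concentration at −50% growth (LC50) and at 50% growth (GI50).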

The test system of series [7] is Pseudomonas aeruginosa IMP 1 Livermore 3140. It counts as cell-based. The settings on record: IMP 1 Livermore 3140. The method, boiled down: as §1
For series [8], the system named is Pseudomonas aeruginosa P8191900. The format is cell-based. The settings on record: P8191900. The method, boiled down: as §1
Series [9] has as its system Pseudomonas aeruginosa P1021913. The format is cell-based. The settings on record: P1021913. The method, boiled down: as §1
Series [10] deals with Pseudomonas aeruginosa P1021903. It counts as cell-based. The settings on record: P1021903. In outline: as §1
Setting [11] is: 0.1 mg/kg, 1 h after inoculation.
The mark [12] stands for this setting: 0.25 mg/kg, 1 h after inoculation.
The mark [13] stands for this setting: 0.5 mg/kg, 1 h after inoculation.
Setting [14] is: 2.5 mg/kg, 1 h after inoculation.

In brackets after ≈: the same amount, converted by molar mass. Non-standard residues stand in square brackets, D forms with d. Residues, ends and D or L forms follow the SMILES beside them. Dab = NCC[C@H](N)C(=O)O

On to `CC[C@H](C)[C@@H]1NC(=O)[C@H](Cc2c[nH]c3ccccc23)NC(=O)[C@H]([C@@H](C)O)NC(=O)[C@@H]2CCCN2C(=O)[C@H]2CCCN2C(=O)[C@H](CCN)NC(=O)[C@H](C)NC(=O)[C@H](CCN)NC(=O)[C@H](CCN)NC(=O)[C@H](Cc2c[nH]c3ccccc23)NC(=O)[C@H](CCN)NC(=O)[C@H](CCN)NC(=O)[C@H](CCCCN)NC(=O)[C@H](CCN)NC1=O` [Example 1] (cyclo(TWI[Dab]K[Dab][Dab]W[Dab][Dab]A[Dab][dP]P)), for which the “Average MIC” value in series [1] turned out to be 0.10 µg/mL. In addition, in series [2], the “MIC P. aeruginosa ATCC 27853” value came to 0.03 µg/mL (≈ 0.019 µM). The “Stability rat Plasma t1/2” value in [3] is 5 h. The Dead was determined as 5 in [4] (setting [11]); 5 in [4] (setting [12]); 2 in series [4] (setting [13]); 1 in [4] (1 mg/kg, 1 h after inoculation); 0 in series [4] (setting [14]); 0 in series [4] (5 mg/kg, 1 h after inoculation). For the same compound, the Dead in series [4] (10 (2 × 5) mg/kg, 7 days) was found to be 0. Besides, the Survivors was determined as 1 in series [4] (setting [11]); 1 in series [4] (setting [12]); 4 in [4] (setting [13]); 5 in [4] (1 mg/kg, 1 h after inoculation); 6 in series [4] (setting [14]); 6 in series [4] (5 mg/kg, 1 h after inoculation). The Survivors in [4] (10 (2 × 5) mg/kg, 7 days) was determined as 6. Further, in [5], the “Stability human Plasma t1/2” value is 5 h. The Cytotoxicity GI50 Hela cells in series [6] was 30 µM. For the same compound, the “MIC P. aeruginosa IMP1 Livermore 3140” value in [7] worked out at 0.18 µg/mL (≈ 0.114 µM). The “MIC P. aeruginosa P8191900” value in [8] was 0.07 µg/mL (≈ 0.0443 µM). Also, the “MIC P. aeruginosa P1021913” value in [9] came to 0.13 µg/mL (≈ 0.0822 µM). In series [10], the “MIC P. aeruginosa P1021903” value was 0.07 µg/mL (≈ 0.0443 µM).
